This note sets out measurements from ChEMBL document CHEMBL1141107, “A novel series of non-carboxylic acid, non-hydantoin inhibitors of aldose reductase with potent oral activity in diabetic rat models: 6-(5-chloro-3-methylbenzofuran-2-sulfonyl)-2H-pyridazin-3-one and congeners” (J Med Chem, 2005).

The test system of assay [1] is Rattus norvegicus. The assay is described as follows: Inhibition of fructose accumulation in diabetic rat after oral gavage administration incubated at RT for 60 minutes in pH 4.5 by acute test dosed at 10 mg/kg. It is filed as functional. As to conditions: 1 h.
The subject of assay [2] is Rattus norvegicus. Put plainly: Inhibition of sorbitol accumulation in diabetic rat by acute test dosed at 10 mg/kg. It is filed as functional.
Assay [3] has as its target Aldo-keto reductase family 1 member B1 (Homo sapiens, UniProt P15121). The assay is described as follows: In vitro inhibitroy concentration against Aldose reductase incubated at 24 degree C for 15 minutes in pH 7.0.
Assay [4] relates to Rattus norvegicus. The assay is described as follows: Inhibition of fructose accumulation in diabetic rat after oral gavage administration, pH 4.5 by chronic test. The class given is functional.
For assay [5], the system named is Rattus norvegicus. Put plainly: Inhibition of sorbitol accumulation in diabetic rat by chronic test dosed at 20 mg/kg. The class given is functional.
Assay [6] has as its system Rattus norvegicus. The assay is described as follows: Inhibition of fructose accumulation in diabetic rat after oral gavage administration incubated at RT for 60 minutes in pH 4.5 by acute test dosed at 20 mg/kg. The class given is functional. Particulars: 1 h.
Assay [7] deals with Rattus norvegicus. The assay is described as follows: Inhibition of sorbitol accumulation in diabetic rat by acute test dosed at 20 mg/kg. It is filed as functional.
In assay [8] the test system is Rattus norvegicus. The assay is described as follows: Inhibition of sorbitol accumulation in diabetic rat by acute test dosed at 3 mg/kg. The class given is functional.
The subject of assay [9] is Rattus norvegicus. The assay is described as follows: Inhibition of fructose accumulation in diabetic rat after oral gavage administration incubated at RT for 60 minutes in pH 4.5 by acute test dosed at 3 mg/kg. It is filed as functional. As to conditions: 1 h.
The test system of assay [10] is Rattus norvegicus. The assay is described as follows: Inhibition of sorbitol accumulation in diabetic rat by acute test dosed at 50 mg/kg. The class given is functional.
In assay [11] the test system is Rattus norvegicus. Put plainly: Inhibition of fructose accumulation in diabetic rat after oral gavage administration, pH 4.5 by chronic test dosed at 20 mg/kg. The class given is functional.
For assay [12], the system named is Rattus norvegicus. The assay is described as follows: Inhibition of fructose accumulation in diabetic rat after oral gavage administration, pH 4.5 by chronic test dosed at 10 mg/kg. The class given is functional.
Assay [13] concerns Rattus norvegicus. Put plainly: Inhibition of sorbitol accumulation in diabetic rat by chronic test dosed at 10 mg/kg. The class given is functional.
For assay [14], the system named is Rattus norvegicus. The assay is described as follows: Dose required for fructose accumulation in diabetic rat after oral gavage administration incubated at RT for 60 minutes in pH 4.5 by acute test. The class given is functional.
The species entered for assay [15] is Rattus norvegicus. The assay is described as follows: Dose required for inhibition of sorbitol accumulation in diabetic rat by acute test. It is filed as functional.

Structures are written as SMILES. pIC50: −log10 of the molar value.

By inhibition in vivo is commonly meant the change of the read-out against control, counted positive when it falls. As a reminder, the pIC50 is the negative decadic logarithm of the IC50, by convention in mol/L. Higher therefore signals a low IC50. Usually Inhibition stands for the percentage by which the read-out fell short of the control. High values mean strong suppression, low ones little suppression. The ED50 is the midpoint of the dose-response relation. Lower therefore signals greater potency.

Turning to `O=c1ccc(S(=O)(=O)c2cc3ccccc3o2)n[nH]1`, the inhibition in vivo at 10 mg/kg in the assay on Rattus norvegicus [1] is 34%.

Regarding `O=S(=O)(c1ccc(O)nn1)c1ccc(Br)cc1F`, the inhibition in vivo at 10 mg/kg was found to be 81% in the assay with Rattus norvegicus [2] and 67% in the assay on Rattus norvegicus [1].

In turn, `O=c1ccc(S(=O)(=O)c2ccc(F)cc2F)n[nH]1` gave a pIC50 in assay [3] of 6.06.

Consider `O=S(=O)(c1ccc2ccccc2c1)c1ccc(O)nn1`, for which, in the assay on Rattus norvegicus [4], the Inhibition is listed as 51%. In addition, the pIC50 in [3] was 6.44. In addition, the inhibition in vivo at 20 mg/kg with Rattus norvegicus [5] turned out to be 74%.

For `O=c1ccc(S(=O)(=O)c2cc3cc(Cl)cc(Cl)c3[nH]2)n[nH]1`, the negative-log IC50 (pIC50) in [3] is 6.70.

With `O=c1ccc(S(=O)(=O)Cc2c(F)cccc2Cl)n[nH]1`, the inhibition in vivo at 20 mg/kg was 45% in the assay on Rattus norvegicus [6] and 42% in the assay with Rattus norvegicus [7]. The pIC50 in [3] was 7.59.

With `Cc1c(S(=O)(=O)c2ccc(O)nn2)sc2ccc(Cl)cc12`, the inhibition in vivo at 10 mg/kg in the assay with Rattus norvegicus [2] is 83%; in the assay on Rattus norvegicus [1] it was 51%. The inhibition in vivo at 3 mg/kg was found to be 49% in the assay with Rattus norvegicus [8] and 29% with Rattus norvegicus [9]. This compound gave a pIC50 in assay [3] of 7.26.

For the compound `O=S(=O)(c1ccc(O)nn1)c1oc2ccccc2c1-c1ccc(F)cc1`, the inhibition in vivo at 10 mg/kg came out at 66% in the assay with Rattus norvegicus [2] and 50% in the assay on Rattus norvegicus [1]. In [3], this compound gave a pIC50 of 7.31.

As for `O=c1ccc(S(=O)(=O)Cc2c(Cl)cccc2Cl)n[nH]1`, the inhibition in vivo at 10 mg/kg in the assay with Rattus norvegicus [2] came out at 42%; with Rattus norvegicus [1], 24%. Moreover, the pIC50 in assay [3] is 7.28.

`O=c1ccc(S(=O)(=O)c2cc3ccc(Cl)cc3[nH]2)n[nH]1`: the pIC50 in [3] is 6.19.

For the compound `O=c1ccc(S(=O)(=O)c2ccc(C(F)(F)F)cc2)n[nH]1`, the results for the inhibition in vivo at 20 mg/kg in the assay on Rattus norvegicus [6] and in the assay with Rattus norvegicus [7] were 24% and 67%, respectively. The inhibition in vivo at 10 mg/kg with Rattus norvegicus [2] turned out to be 44%; in the assay on Rattus norvegicus [1] it was 10%. In addition, the pIC50 in assay [3] is 6.44.

In turn, `O=S(=O)(Cc1ccccc1Cl)c1ccc(O)nn1` had a pIC50 in [3] of 6.93.

In the case of `O=c1ccc(S(=O)(=O)c2ccc(Br)cc2)n[nH]1`, in the assay with Rattus norvegicus [10], the inhibition in vivo at 50 mg/kg is 26%. In addition, the pIC50 in assay [3] was 6.46.

Regarding `O=c1ccc(S(=O)(=O)c2ccc(Cl)cc2)n[nH]1`, the figures for the inhibition in vivo at 10 mg/kg in the assay on Rattus norvegicus [2] and in the assay with Rattus norvegicus [1] were 65% and 52%, respectively. In addition, the negative logarithm of the IC50 (pIC50) in assay [3] was 6.42.

In the case of `O=c1ccc(S(=O)(=O)c2oc3ccc(Cl)cc3c2-c2ccccc2)n[nH]1`, the inhibition in vivo at 20 mg/kg with Rattus norvegicus [6] worked out at 20%; in the assay on Rattus norvegicus [7], 27%. In assay [3], this compound had a pIC50 of 7.47.

For the compound `O=c1ccc(S(=O)(=O)c2ccc(F)cc2)n[nH]1`, the inhibition in vivo at 50 mg/kg with Rattus norvegicus [10] is 81%. In addition, in assay [3], the pIC50 was 6.32.

Regarding `O=S(=O)(Cc1cccc(C(F)(F)F)c1)c1ccc(O)nn1`, the inhibition in vivo at 20 mg/kg amounted to 70% with Rattus norvegicus [6], 42% in the assay on Rattus norvegicus [11], 88% in the assay with Rattus norvegicus [7] and 65% in the assay on Rattus norvegicus [5]. Also, in assay [3], the pIC50 was 7.14.

With `CCc1c(S(=O)(=O)c2ccc(O)nn2)oc2ccc(Cl)cc12`, the values for the inhibition in vivo at 10 mg/kg in the assay with Rattus norvegicus [12] and with Rattus norvegicus [13] were 24% and 48%, respectively. This compound gave a pIC50 in assay [3] of 8.22.

In the case of `O=c1ccc(S(=O)(=O)Cc2cccc(C(F)(F)F)c2F)n[nH]1`, the results for the inhibition in vivo at 20 mg/kg in the assay with Rattus norvegicus [6] and in the assay on Rattus norvegicus [7] were 56% and 61%, respectively. In assay [3], the pIC50 was 7.36.

On to `O=c1ccc(S(=O)(=O)c2cc3ccccc3[nH]2)n[nH]1`, for which the inhibition in vivo at 20 mg/kg in the assay with Rattus norvegicus [6] amounted to 82%; with Rattus norvegicus [11], 50%; in the assay with Rattus norvegicus [7], 100%; with Rattus norvegicus [5], 67%. Besides, the inhibition in vivo at 10 mg/kg came to 75% in the assay on Rattus norvegicus [2] and 58% in the assay on Rattus norvegicus [1]. In addition, the pIC50 in assay [3] was 6.23.

On to `O=S(=O)(c1ccc(O)nn1)c1ccccc1Cl`, for which the inhibition in vivo at 20 mg/kg was determined as 81% in the assay with Rattus norvegicus [6] and 101% in the assay on Rattus norvegicus [7]. Besides, the inhibition in vivo at 10 mg/kg in the assay with Rattus norvegicus [2] came to 96%; in the assay on Rattus norvegicus [1], 68%.

For `O=c1ccc(S(=O)(=O)c2cc3ccccc3s2)n[nH]1`, the inhibition in vivo at 20 mg/kg in the assay on Rattus norvegicus [6] was found to be 22%; in the assay on Rattus norvegicus [7] it was 46%. The compound further gave a pIC50 in assay [3] of 6.74.

As to `O=S(=O)(c1ccc(O)nn1)c1ccc(F)cc1Cl`, the inhibition in vivo at 20 mg/kg in the assay on Rattus norvegicus [6] is 97%; in the assay with Rattus norvegicus [7], 106%. Moreover, the inhibition in vivo at 10 mg/kg with Rattus norvegicus [2] was found to be 95%; in the assay with Rattus norvegicus [1], 87%.

Regarding `O=S(=O)(c1ccc(O)nn1)c1ccc(Cl)cc1Cl`, the ED50 with Rattus norvegicus [14] worked out at 3 mg/kg; in the assay filed under Rattus norvegicus [15], 0.8 mg/kg.

On to `O=S(=O)(c1ccc(O)nn1)c1ccccc1Br`, for which, in the assay with Rattus norvegicus [10], the inhibition in vivo at 50 mg/kg was determined as 55%.
